Counter-ions that a name gives are not always drawn.
Tests used:
[1] = molecular target: BA/F3-KRAS(G12D) murine pro-B cell line stably expressing KRAS(G12D) (Homo sapiens, UniProt P01116, G12D, cells depend on it); test: CellTiter-Glo cancer cell line proliferation assay, BA/F3-KRAS(G12D); type: cell-based; settings: 24 hr, read-out: BAF3 at 24 hrs, IC50
Method: The following cancer cell lines were employed: AsPC-1 human pancreatic adenocarcinoma (ATCC, #CRL-1682); A-427 human lung carcinoma (ATCC, #HTB-53); BA/F3-KRAS(G12D) murine pro-B cell line stably expressing KRAS(G12D) (Precedo, Hefei, China). Cell lines were cultured according to ATCC and recommendations. BA/F3-KRAS(G12D) cells were cultured in RPMI 1640 media with 10% fetal calf serum, 100 units/mL penicillin and […] streptomycin, and 1% glutamine.
CellTiter-Glo® Reagent Cancer Cell Line Proliferation Assays
Cells were plated in 96-well tissue culture plates at 4,000 cells/well and incubated at 37° C./5% CO2 for 24 hr in 100 μl of media. 3-fold serial dilutions of each test compound were prepared ranging from 20 μM to 1.02 nM. Cells were then treated with test compounds at various concentrations with a final concentration of 0.5% DMSO/well, and then incubated at 37° C./5% CO2 for 24 hr. 100 μl of CellTiter-Glo® Reagent (Promega Corporation, Madison, WI) was added to each well and processed according manufacturer's protocol. Results were analyzed and IC50-values were calculated in GraphPad 7 software.

[2] = system: AsPC-1 human pancreatic adenocarcinoma; test: CellTiter-Glo cancer cell line proliferation assay, AsPC-1; type: cell-based; settings: Homo sapiens, ASPC1, 24 hr
Summary of the method: (§1)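 Cells plated at 4,000/well, grown 24 h at 37 °C/5% CO2, then exposed to compound concentration series (0.5% DMSO final) for 24 h. Viability read by CellTiter-Glo luminescence; IC50 values calculated.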

KRAS(G12D)/SOS1 = molecular target: T1, KRAS(G12D)/SOS1 (Homo sapiens, UniProt P01116, G12D); test: KRAS(G12D)/SOS1 homogeneous time-resolved fluorescence (HTRF) assay; type: binding; settings: absence of GTP, 4° C. for 3 hr
T1 construct: purchased Cisbio 63ADK000CB16PEG
T1 sequence (P01116 1-188 isoform P01116-2 G12D): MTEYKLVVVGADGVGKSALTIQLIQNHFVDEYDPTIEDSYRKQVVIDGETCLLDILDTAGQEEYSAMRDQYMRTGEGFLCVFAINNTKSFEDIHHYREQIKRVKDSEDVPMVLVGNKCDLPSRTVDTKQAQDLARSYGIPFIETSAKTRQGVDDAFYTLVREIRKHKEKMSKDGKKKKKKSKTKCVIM
Method: The test compound was mixed and incubated with reaction components, incubated in a sealed plate at 4° C. for 3 hr and fluorescence was measured using a PerkinElmer Envision plate reader.

[3] = system: A-427 human lung carcinoma; test: CellTiter-Glo cancer cell line proliferation assay, A-427; type: cell-based; settings: Homo sapiens, A-427, 24 hr, read-out: A427 at 24 hrs, IC50
Summary of the method: as §1

Chain of BA/F3-KRAS(G12D) murine pro-B cell line stably expressing KRAS(G12D) (P01116 whole entry G12D): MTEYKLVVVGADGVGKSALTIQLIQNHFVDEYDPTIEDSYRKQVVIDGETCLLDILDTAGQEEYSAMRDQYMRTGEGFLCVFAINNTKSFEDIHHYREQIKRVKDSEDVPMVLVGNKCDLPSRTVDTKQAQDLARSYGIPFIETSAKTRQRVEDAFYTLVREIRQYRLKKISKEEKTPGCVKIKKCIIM

| SMILES | GI50 [1] [µM] | IC50 [2] [µM] | IC50 (KRAS(G12D)/SOS1) [µM] | IC50 [3] [µM] |
| --- | --- | --- | --- | --- |
| CN1C[C@@H](N2CCC(C(=O)NCCOCCOc3ccc4c(c3)C(=O)N(C3CCC(=O)NC3=O)C4=O)CC2)C[C@H]1COc1nc(N2CC3CCC(C2)N3)c2cnc(-c3cccc4cccc(Cl)c34)c(F)c2n1 (stereo partly drawn) [Compound 11, 1-((3S,5S)-5-(((4-(3,8-diazabicyclo[3.2.1]octan-3-yl)-7-(8-chloronaphthalen-1-yl)-8-fluoropyrido[4,3-d]pyrimidin-2-yl)oxy)methyl)-1-methylpyrrolidin-3-yl)-N-(2-(2-((2-(2,6-dioxopiperidin-3-yl)-1,3-dioxoisoindolin-5-yl)oxy)ethoxy)ethyl)piperidine-4-carboxamide formate] | > 1 | > 1 | 0.1 to 1 | > 1 |
| C#Cc1cccc2cccc(-c3ncc4c(N5CC6CCC(C5)N6)nc(OC[C@@H]5C[C@H](N6CCN(Cc7ccc8c(c7)C(=O)N(C7CCC(=O)NC7=O)C8=O)CC6)CN5C)nc4c3F)c12 (stereo partly drawn) [Compound 7, 5-((4-((3S,5S)-5-(((4-(3,8-diazabicyclo[3.2.1]octan-3-yl)-7-(8-ethynylnaphthalen-1-yl)-8-fluoropyrido[4,3-d]pyrimidin-2-yl)oxy)methyl)-1-methylpyrrolidin-3-yl)piperazin-1-yl)methyl)-2-(2,6-dioxopiperidin-3-yl)isoindoline-1,3-dione formate] | > 1 | > 1 | < 0.1 | > 1 |
| C#Cc1cccc2cccc(-c3ncc4c(N5CC6CCC(C5)N6)nc(OC[C@@H]5CC[C@H](CN6CCN(CC7CCN(c8cccc9c8C(=O)N(C8CCC(=O)NC8=O)C9=O)CC7)CC6)N5C)nc4c3F)c12 (stereo partly drawn) [Compound 14, 4-(4-((4-(((2R,5S)-5-(((4-(3,8-diazabicyclo[3.2.1]octan-3-yl)-7-(8-ethynylnaphthalen-1-yl)-8-fluoropyrido[4,3-d]pyrimidin-2-yl)oxy)methyl)-1-methylpyrrolidin-2-yl)methyl)piperazin-1-yl)methyl)piperidin-1-yl)-2-(2,6-dioxopiperidin-3-yl)isoindoline-1,3-dione] | 0.1 to 1 | 0.1 to 1 | < 0.1 | > 1 |
| Cc1ncsc1-c1ccc(CNC(=O)[C@@H]2C[C@@H](O)CN2C(=O)[C@@H](NC(=O)CCCNC(=O)C2CCN([C@H]3C[C@@H](COc4nc(N5CC6CCC(C5)N6)c5cnc(-c6cccc7cccc(Cl)c67)c(F)c5n4)N(C)C3)CC2)C(C)(C)C)cc1 [Compound 26, 1-((3S,5S)-5-(((4-(3,8-diazabicyclo[3.2.1]octan-3-yl)-7-(8-chloronaphthalen-1-yl)-8-fluoropyrido[4,3-d]pyrimidin-2-yl)oxy)methyl)-1-methylpyrrolidin-3-yl)-N-(4-(((S)-1-((2S,4R)-4-hydroxy-2-((4-(4-methylthiazol-5-yl)benzyl)carbamoyl)pyrrolidin-1-yl)-3,3-dimethyl-1-oxobutan-2-yl)amino)-4-oxobutyl)piperidine-4-carboxamide] | > 1 | > 1 | < 0.1 | > 1 |
| C#Cc1cccc2cccc(-c3ncc4c(N5CC6CCC(C5)N6)nc(OCC5(CN6CCN(CC7CCN(c8cccc9c8C(=O)N(C8CCC(=O)NC8=O)C9=O)CC7)CC6)CC5)nc4c3F)c12 (stereo not drawn) [Compound 29, 4-(4-((4-((1-(((4-(3,8-diazabicyclo[3.2.1]octan-3-yl)-7-(8-ethynylnaphthalen-1-yl)-8-fluoropyrido[4,3-d]pyrimidin-2-yl)oxy)methyl)cyclopropyl)methyl)piperazin-1-yl)methyl)piperidin-1-yl)-2-(2,6-dioxopiperidin-3-yl)isoindoline-1,3-dione formate] | 0.1 to 1 | > 1 | < 0.1 | > 1 |
| C#Cc1cccc2cccc(-c3ncc4c(N5CC6CCC(C5)N6)nc(OC[C@@H]5C[C@H](N6CCN(CC7CCN(c8cccc9c8C(=O)N(C8CCC(=O)NC8=O)C9=O)CC7)CC6)CN5C)nc4c3F)c12 (stereo partly drawn) [Compound 6, 4-(4-((4-((3S,5S)-5-(((4-(3,8-diazabicyclo[3.2.1]octan-3-yl)-7-(8-ethynylnaphthalen-1-yl)-8-fluoropyrido[4,3-d]pyrimidin-2-yl)oxy)methyl)-1-methylpyrrolidin-3-yl)piperazin-1-yl)methyl)piperidin-1-yl)-2-(2,6-dioxopiperidin-3-yl)isoindoline-1,3-dione hydrochloride] | > 1 | > 1 | < 0.1 | > 1 |
| Cc1ncsc1-c1ccc(CNC(=O)[C@@H]2C[C@@H](O)CN2C(=O)[C@@H](NC(=O)C2CCN([C@H]3C[C@@H](COc4nc(N5CC6CCC(C5)N6)c5cnc(-c6cccc7cccc(Cl)c67)c(F)c5n4)N(C)C3)CC2)C(C)(C)C)cc1 [Compound 24, 1-((3S,5S)-5-(((4-(3,8-diazabicyclo[3.2.1]octan-3-yl)-7-(8-chloronaphthalen-1-yl)-8-fluoropyrido[4,3-d]pyrimidin-2-yl)oxy)methyl)-1-methylpyrrolidin-3-yl)-N—((S)-1-((2S,4R)-4-hydroxy-2-((4-(4-methylthiazol-5-yl)benzyl)carbamoyl)pyrrolidin-1-yl)-3,3-dimethyl-1-oxobutan-2-yl)piperidine-4-carboxamide formate] | > 1 | > 1 | 0.1 to 1 | > 1 |
| CN1C[C@@H](N2CCC(C(=O)N3CCN(c4ccc5c(c4)C(=O)N(C4CCC(=O)NC4=O)C5=O)CC3)CC2)C[C@H]1COc1nc(N2CC3CCC(C2)N3)c2cnc(-c3cccc4ccccc34)c(F)c2n1 (stereo partly drawn) [Compound 19, 5-(4-(1-((3S,5S)-5-(((4-(3,8-diazabicyclo[3.2.1]octan-3-yl)-8-fluoro-7-(naphthalen-1-yl)pyrido[4,3-d]pyrimidin-2-yl)oxy)methyl)-1-methylpyrrolidin-3-yl)piperidine-4-carbonyl)piperazin-1-yl)-2-(2,6-dioxopiperidin-3-yl)isoindoline-1,3-dione formate] | > 1 | > 1 | 0.1 to 1 | > 1 |
| C#Cc1cccc2cccc(-c3ncc4c(N5CC6CCC(C5)N6)nc(OC[C@@H]5CC[C@H](CN6CCN(CC7CCN(c8ccc9c(c8)C(=O)N(C8CCC(=O)NC8=O)C9=O)CC7)CC6)N5C)nc4c3F)c12 (stereo partly drawn) [Compound 13, 5-(4-((4-(((2R,5S)-5-(((4-(3,8-diazabicyclo[3.2.1]octan-3-yl)-7-(8-ethynylnaphthalen-1-yl)-8-fluoropyrido[4,3-d]pyrimidin-2-yl)oxy)methyl)-1-methylpyrrolidin-2-yl)methyl)piperazin-1-yl)methyl)piperidin-1-yl)-2-(2,6-dioxopiperidin-3-yl)isoindoline-1,3-dione hydrochloride] | 0.1 to 1 | > 1 | < 0.1 | > 1 |
